In assay [1] the target is T1, BTK(C481S)-GFP (Homo sapiens, UniProt Q06187+Q96SW2, C481S).
T1 construct: with a mutagenesis reaction on pENTR221-BTK (STOP-Leu); CHYSEL (cis-acting hydrolase element, 2A) remnant after GFP; mCherry is split off as a separate protein (C); expressed in transfected cells; host or cells: TMD8 cells, lentiviral transduction with pLenti6-BTK(C481S)-GFP-CHYSEL-mCherry
The assay is described as follows: BTK(C481S)-GFP protein abundance flow cytometry assay in TMD8 cells. As to conditions: for BTK (C481S) Amax %: % protein remaining at concentration of maximum degradation; for DC50: concentration at which 50% maximal degradation was observed. Type of assay: cell-based. The procedure:
(§1) Compounds of the invention were tested in the following cellular assays. The terms in Table 1 are defined as follows: DC50 refers to the concentration at which 50% maximal degradation was observed; deg Amax is the extent of degradation and the value refers to the % protein remaining at the concentration at which maximum degradation is seen; Prol GI50 refers to the proliferation data and defines the concentration at which 50% growth inhibition was observed compared to the vehicle treated control at the end of the incubation time. TMD8 cells are BTK dependent and OCI-LY3 cells are BTK independent.
BTK(C481S)-GFP Protein Abundance Flow Cytometry Assay in TMD8 Cells:
Degradation of BTK(C481S) was measured in TMD8 cells expressing BTK(C481S)-GFP and mCherry from a stably integrated second generation bicistronic BTK(C481S)-GFP-CHYSEL-mCherry construct. Reduction of the GFP signal measured by flow cytometry served as readout for BTK(C481S) degradation after degrader treatment.

For assay [2], the system named is OCI-LY3 cells. The assay is described as follows: Resazurin cell viability assay in DLBCL cells (OCI-LY3). Type of assay: cell-based. As to conditions: Homo sapiens, OCI-Ly3, 72 h, OCI-LY3 cells (BTK independent), 50% growth inhibition, read-out: OCI-LY3 Prol GI50. The procedure: as §1
Cell Viability Assay in DLBCL (Diffuse Large B-Cell Lymphoma) Cells:
The effect of the BTK compounds on cell proliferation was measured by a Resazurin (Sigma, #R7017) based cell viability assay. TMD8 (BTK compound sensitive) and OCI-LY3 (BTK compound insensitive) cells were incubated for 72 h at 37° C. and 5% CO2 with the corresponding compound. Resazurin is a non-toxic, cell-permeable substrate that is virtually non-fluorescent. Upon entering living cells, Resazurin (Sigma, #R7017) is reduced to highly fluorescent Resorufin. The metabolic activity was assessed by measuring the fluorescence signal (ex. 530 nm; em. 600 nm).
TMD8 and OCI-Ly3 cells were seeded at day 0 in triplicates at a cell density of 1×10^4 cells per 150 μl/well in a 96-well plate (Costar #3904). Additional plates were prepared, in order to assess the basal metabolic activity of both cell lines at the beginning of the experiment. For these reference plates, Resazurin (Sigma, #R7017) was added to a final concentration of 13 μg/ml 3 h post seeding and was incubated for 2 h at 37° C. and 5% CO2. Following incubation, the fluorescent signal intensity of the 96-well plates was measured on a Mithras LB940 multimode plate reader at 530/600 nm (Berthold Technologies, Germany).
In parallel, 3 h post-seeding, test-plates were treated with compound at various concentrations, or with vehicle (DMSO) alone for 3 days. The compound addition to the plates was performed by using a HP D300 digital dispenser (TECAN, Switzerland). The compounds were tested in triplicate, 8-point serial dilution (1:4), with a start concentration of 10 μM for OCI-LY3 and 1 μM for the TMD8 cells, respectively. To assess the relative proliferation of the cells, Resazurin was added to each well directly to the medium to a final concentration of 13 μg/ml. The plates were incubated for 2 h at 37° C. and 5% CO2 to result in a 72 h endpoint. Following incubation, the fluorescent signal intensity of the 96-well plates were measured on a Mithras LB940 multimode plate reader at 530/600 nm (Berthold Technologies, Germany). The formation of Resorufin dye directly correlates with the number of metabolically active cells. For each triplicate treatment the mean and standard deviation were calculated and analyzed via curve fitting software to determine the respective compound concentration resulting in 50% growth inhibition (GI50) values. For each compound GI50 values were typically determined from at least 2 entirely independent experiments.
OCI-LY3 cells were acquired through a license agreement with University Health Network, Toronto, Canada. Cells are cultivated in RPMI1640 media (Gibco, #61870-010, lot. 1894759), supplemented with 10% FCS (HyClone, GE #SH30066.03, lot AB217603), 2 mM L-Glutamine (BioConcept, #5-10K50-H, lot. LA03467P), 1 mM Sodium Pyruvate (BioConcept, #5-60F00-H, lot. LB10510P), 10 mM HEPES (Gibco, #15630-056, lot. 1854074), 1% Pen/Strep (BioConcept, #4-01F00-H, lot. LB04235P).

T1 sequence (Q06187 whole entry C481S): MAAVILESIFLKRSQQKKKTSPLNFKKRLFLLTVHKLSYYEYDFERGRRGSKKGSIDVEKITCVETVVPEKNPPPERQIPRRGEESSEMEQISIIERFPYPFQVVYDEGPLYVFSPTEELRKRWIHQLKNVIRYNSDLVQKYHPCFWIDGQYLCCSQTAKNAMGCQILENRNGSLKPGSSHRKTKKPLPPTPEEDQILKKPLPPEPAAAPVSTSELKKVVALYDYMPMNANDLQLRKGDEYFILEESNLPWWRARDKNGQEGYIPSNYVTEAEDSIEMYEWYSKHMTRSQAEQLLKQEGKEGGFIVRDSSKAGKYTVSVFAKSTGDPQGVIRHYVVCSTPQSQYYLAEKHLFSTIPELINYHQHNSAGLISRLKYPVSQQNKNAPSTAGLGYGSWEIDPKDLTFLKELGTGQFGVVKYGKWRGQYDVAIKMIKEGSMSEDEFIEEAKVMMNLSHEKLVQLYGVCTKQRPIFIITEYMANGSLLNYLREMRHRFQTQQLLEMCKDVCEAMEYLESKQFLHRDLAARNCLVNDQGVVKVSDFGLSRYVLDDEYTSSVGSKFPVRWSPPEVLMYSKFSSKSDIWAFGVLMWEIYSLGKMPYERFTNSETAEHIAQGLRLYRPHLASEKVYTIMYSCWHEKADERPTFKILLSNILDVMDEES
T1 sequence (Q96SW2 whole entry): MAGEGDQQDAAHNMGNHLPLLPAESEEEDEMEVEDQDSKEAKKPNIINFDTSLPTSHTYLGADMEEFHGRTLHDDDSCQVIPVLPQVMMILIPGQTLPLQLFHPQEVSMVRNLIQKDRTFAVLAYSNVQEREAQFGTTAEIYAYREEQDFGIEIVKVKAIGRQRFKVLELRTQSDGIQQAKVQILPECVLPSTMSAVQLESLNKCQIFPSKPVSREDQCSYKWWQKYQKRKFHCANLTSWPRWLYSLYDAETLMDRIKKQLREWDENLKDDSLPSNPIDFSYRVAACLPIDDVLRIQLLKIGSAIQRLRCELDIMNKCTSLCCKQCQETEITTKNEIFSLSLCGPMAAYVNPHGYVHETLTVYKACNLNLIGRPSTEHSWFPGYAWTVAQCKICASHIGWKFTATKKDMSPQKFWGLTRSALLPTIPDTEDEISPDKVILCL
T1 sequence (Q16531 whole entry partner): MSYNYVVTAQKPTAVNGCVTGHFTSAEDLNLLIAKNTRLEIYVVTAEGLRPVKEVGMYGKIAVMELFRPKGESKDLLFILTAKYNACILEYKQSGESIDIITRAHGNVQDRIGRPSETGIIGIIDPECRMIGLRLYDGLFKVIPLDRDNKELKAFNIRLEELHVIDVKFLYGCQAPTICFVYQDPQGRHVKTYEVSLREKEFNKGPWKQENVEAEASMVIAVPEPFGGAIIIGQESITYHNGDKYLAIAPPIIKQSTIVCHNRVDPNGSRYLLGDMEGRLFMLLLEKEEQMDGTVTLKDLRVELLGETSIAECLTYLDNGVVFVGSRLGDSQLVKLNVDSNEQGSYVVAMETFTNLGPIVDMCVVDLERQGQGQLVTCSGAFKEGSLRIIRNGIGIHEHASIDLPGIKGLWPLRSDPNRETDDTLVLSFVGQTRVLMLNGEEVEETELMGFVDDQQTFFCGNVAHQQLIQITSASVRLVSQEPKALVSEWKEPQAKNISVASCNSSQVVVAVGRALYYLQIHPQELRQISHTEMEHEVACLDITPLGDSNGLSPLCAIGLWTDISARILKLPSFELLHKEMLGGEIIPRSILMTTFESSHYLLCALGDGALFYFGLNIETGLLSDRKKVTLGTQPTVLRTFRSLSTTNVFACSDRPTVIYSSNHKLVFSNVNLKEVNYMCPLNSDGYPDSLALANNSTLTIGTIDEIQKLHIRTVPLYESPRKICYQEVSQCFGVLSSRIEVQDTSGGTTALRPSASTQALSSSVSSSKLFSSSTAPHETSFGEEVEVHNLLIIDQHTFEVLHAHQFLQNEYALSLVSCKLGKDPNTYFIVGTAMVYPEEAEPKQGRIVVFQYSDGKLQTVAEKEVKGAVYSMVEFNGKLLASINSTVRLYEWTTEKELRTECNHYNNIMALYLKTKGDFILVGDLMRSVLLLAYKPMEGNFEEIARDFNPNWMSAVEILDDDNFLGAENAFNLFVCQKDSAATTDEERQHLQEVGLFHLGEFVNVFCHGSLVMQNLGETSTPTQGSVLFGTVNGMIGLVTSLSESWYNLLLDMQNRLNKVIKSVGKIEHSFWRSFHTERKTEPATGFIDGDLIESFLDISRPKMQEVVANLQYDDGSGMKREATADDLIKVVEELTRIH

For the compound `COc1ccc(C(=O)N2CCC3(CCN(Cc4ccc(-c5cc6c(-c7cc(F)cc(NC(=O)N8C[C@@H](CC(C)C)[C@H](O)C8)c7C)ncnc6[nH]5)cc4)CC3)CC2)cc1N1CCC(=O)NC1=O` (racemic) [Compound 5, trans-rac-N-(3-(6-(4-((9-(3-(2,4-Dioxotetrahydropyrimidin-1(2H)-yl)-4-methoxybenzoyl)-3,9-diazaspiro[5.5]undecan-3-yl)methyl)phenyl)-7H-pyrrolo[2,3-d]pyrimidin-4-yl)-5-fluoro-2-methylphenyl)-3-hydroxy-4-isobutylpyrrolidine-1-carboxamide], in assay [1], the “BTK (C481S) Amax %” value was found to be 2.0% and it took 1.3 nM to reach half-maximal degradation (DC50). The GI50 in assay [2] was 7460 nM.

Take `COc1ccc(C(=O)N2CCC3(CCN(Cc4ccc(-c5cc6c(-c7cc(F)cc(NC(=O)N8C[C@@H](CC(C)C)[C@H](O)C8)c7C)ncnc6[nH]5)cc4)CC3)CC2)cc1N1CCC(=O)NC1=O` [Compound 1, (3S,4R)—N-(3-(6-(4-((9-(3-(2,4-Dioxotetrahydropyrimidin-1(2H)-yl)-4-methoxybenzoyl)-3,9-diazaspiro[5.5]undecan-3-yl)methyl)phenyl)-7H-pyrrolo[2,3-d]pyrimidin-4-yl)-5-fluoro-2-methylphenyl)-3-hydroxy-4-isobutylpyrrolidine-1-carboxamide]: in assay [1], the “BTK (C481S) Amax %” value worked out at 3.6% and the DC50 turned out to be 41 nM. The concentration for 50% growth inhibition (GI50) in assay [2] amounted to 7120 nM.

Take `COc1ccc(C(=O)N2CCC(OCCN3CCN(Cc4ccc(-c5cc6c(-c7cc(F)cc(NC(=O)N8C[C@H](CC(C)C)[C@@H](O)C8)c7C)ncnc6[nH]5)cc4)CC3)CC2)cc1N1CCC(=O)NC1=O` [Compound 2, (3R,4S)—N-(3-(6-(4-((4-(2-((1-(3-(2,4-Dioxotetrahydropyrimidin-1 (2H)-yl)-4-methoxybenzoyl)piperidin-4-yl)oxy)ethyl)piperazin-1-yl)methyl)phenyl)-7H-pyrrolo[2,3-d]pyrimidin-4-yl)-5-fluoro-2-methylphenyl)-3-hydroxy-4-isobutylpyrrolidine-1-carboxamide]: in assay [1], the “BTK (C481S) Amax %” value was found to be 2.0% and the DC50 was found to be 0.4 nM. Moreover, the GI50 in assay [2] amounted to 7730 nM.

`COc1ccc(C(=O)N2CCC3(CCN(Cc4ccc(-c5cc6c(-c7cc(F)cc(NC(=O)N8C[C@H](CC(C)C)[C@@H](O)C8)c7C)ncnc6[nH]5)cc4)CC3)CC2)cc1N1CCC(=O)NC1=O` [Compound 6, (3R,4S)—N-(3-(6-(4-((9-(3-(2,4-Dioxotetrahydropyrimidin-1(2H)-yl)-4-methoxybenzoyl)-3,9-diazaspiro[5.5]undecan-3-yl)methyl)phenyl)-7H-pyrrolo[2,3-d]pyrimidin-4-yl)-5-fluoro-2-methylphenyl)-3-hydroxy-4-isobutylpyrrolidine-1-carboxamide]: in assay [1], the “BTK (C481S) Amax %” value is given as 2.1% and half-maximal degradation (DC50) was put at 0.7 nM. Moreover, the GI50 in assay [2] is 9920 nM.

Regarding `COc1ccc(C(=O)N2CCC(OC3CCN(Cc4ccc(-c5cc6c(-c7cc(F)cc(NC(=O)N8C[C@H](CC(C)C)[C@@H](O)C8)c7C)ncnc6[nH]5)cc4)CC3)CC2)cc1N1CCC(=O)NC1=O` [Compound 8, (3R,4S)—N-(3-(6-(4-((4-((1-(3-(2,4-Dioxotetrahydropyrimidin-1(2H)-yl)-4-methoxybenzoyl)piperidin-4-yl)oxy)piperidin-1-yl)methyl)phenyl)-7H-pyrrolo[2,3-d]pyrimidin-4-yl)-5-fluoro-2-methylphenyl)-3-hydroxy-4-isobutylpyrrolidine-1-carboxamide], in assay [1], the “BTK (C481S) Amax %” value was 2.7% and it took 0.4 nM to reach half-maximal degradation (DC50). Besides, the GI50 in assay [2] is more than 10000 nM.

Take `COc1ccc(C(=O)N2CCC(CN3CCC(Oc4ccc(-c5cc6c(-c7cc(F)cc(NC(=O)N8C[C@H](CC(C)C)[C@@H](O)C8)c7C)ncnc6[nH]5)cc4)CC3)CC2)cc1N1CCC(=O)NC1=O` [Compound 11, (3R,4S)—N-(3-(6-(4-((1-((1-(3-(2,4-Dioxotetrahydropyrimidin-1 (2H)-yl)-4-methoxybenzoyl)piperidin-4-yl)methyl)piperidin-4-yl)oxy)phenyl)-7H-pyrrolo[2,3-d]pyrimidin-4-yl)-5-fluoro-2-methylphenyl)-3-hydroxy-4-isobutylpyrrolidine-1-carboxamide]: in assay [1], the “BTK (C481S) Amax %” value is 2.2% and it took 0.2 nM to reach half-maximal degradation (DC50). In addition, in assay [2], the GI50 is 3510 nM.

For `COc1ccc(C(=O)N2CCC(CN3CCN(Cc4ccc(-c5cc6c(-c7cc(F)cc(NC(=O)N8C[C@H](CC(C)C)[C@@H](O)C8)c7C)ncnc6[nH]5)cc4)CC3)CC2)cc1N1CCC(=O)NC1=O` [Compound 12, (3R,4S)—N-(3-(6-(4-((4-((1-(3-(2,4-Dioxotetrahydropyrimidin-1(2H)-yl)-4-methoxybenzoyl)piperidin-4-yl)methyl)piperazin-1-yl)methyl)phenyl)-7H-pyrrolo[2,3-d]pyrimidin-4-yl)-5-fluoro-2-methylphenyl)-3-hydroxy-4-isobutylpyrrolidine-1-carboxamide], in assay [1], the “BTK (C481S) Amax %” value turned out to be 3.0% and it took 0.3 nM to reach half-maximal degradation (DC50). The GI50 in assay [2] was more than 10000 nM.

`COc1ccc(C(=O)N2CCC(OC3CCN(CCc4ccc(-c5cc6c(-c7cc(F)cc(NC(=O)N8C[C@H](CC(C)C)[C@@H](O)C8)c7C)ncnc6[nH]5)cc4)CC3)CC2)cc1N1CCC(=O)NC1=O` [Compound 13, (3R,4S)—N-(3-(6-(4-(2-(4-((1-(3-(2,4-Dioxotetrahydropyrimidin-1(2H)-yl)-4-methoxybenzoyl)piperidin-4-yl)oxy)piperidin-1-yl)ethyl)phenyl)-7H-pyrrolo[2,3-d]pyrimidin-4-yl)-5-fluoro-2-methylphenyl)-3-hydroxy-4-isobutylpyrrolidine-1-carboxamide]: in assay [1], the “BTK (C481S) Amax %” value is 1.1% and the DC50 came to 0.2 nM. Moreover, the GI50 in assay [2] was 9220 nM.

Take `COc1ccc(C(=O)N2CCC3(CCN(CCc4ccc(-c5cc6c(-c7cc(F)cc(NC(=O)N8C[C@H](CC(C)C)[C@@H](O)C8)c7C)ncnc6[nH]5)cc4)CC3)CC2)cc1N1CCC(=O)NC1=O` [Compound 15, (3R,4S)—N-(3-(6-(4-(2-(9-(3-(2,4-Dioxotetrahydropyrimidin-1(2H)-yl)-4-methoxybenzoyl)-3,9-diazaspiro[5.5]undecan-3-yl)ethyl)phenyl)-7H-pyrrolo[2,3-d]pyrimidin-4-yl)-5-fluoro-2-methylphenyl)-3-hydroxy-4-isobutylpyrrolidine-1-carboxamide]: in assay [1], the “BTK (C481S) Amax %” value worked out at 3.0% and the DC50 came out at 0.9 nM. The GI50 in assay [2] was determined as 7250 nM.

With `COc1ccc(C(=O)N2CCC3(CCN(CCc4ccc(-c5cc6c(-c7cc(F)cc(NC(=O)N8C[C@@H](CC(C)C)[C@H](O)C8)c7C)ncnc6[nH]5)cc4)CC3)CC2)cc1N1CCC(=O)NC1=O` [Compound 19, (3S,4R)—N-(3-(6-(4-(2-(9-(3-(2,4-dioxotetrahydropyrimidin-1(2H)-yl)-4-methoxybenzoyl)-3,9-diazaspiro[5.5]undecan-3-yl)ethyl)phenyl)-7H-pyrrolo[2,3-d]pyrimidin-4-yl)-5-fluoro-2-methylphenyl)-3-hydroxy-4-isobutylpyrrolidine-1-carboxamide], in assay [1], the “BTK (C481S) Amax %” value is on record as 2.9% and the DC50 came to 16 nM. Moreover, in assay [2], the GI50 is more than 10000 nM.

Source of the values: US11541056B2, “3-hydroxy-N-(3-(7H-pyrrolo[2,3-d]pyrimidin-4-yl)phenyl)pyrrolidine-1-carboxamide derivatives” (NOVARTIS AG, priority 2018, dated 2023).
